Patent US12275733B2, “Substituted pyrido[3,4-b]indoles for the treatment of cartilage disorders” (Sanofi, priority 2016, dated 2025)

Test system: ATDC5 cells
Assay: Chondrogenesis activity assay in ATDC5 cells (collagen type II induction, immunofluorescence)
Assay type: cell-based, mouse
Settings: for EC50: collagen type II induction in ATDC5 cells, concentration reaching 50% of maximum induction; for Emax: maximum percent induction of collagen type II relative to internal reference compound at 10 μM, ATDC5 cells
How it was run: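 Mouse ATDC5 cells in insulin (10 μg/ml)-containing DMEM/F12 differentiation medium with 5% FCS were exposed to compound, typically 40 nM–10 μM at 0.1% DMSO, for 4 days at 37 °C. Intracellular collagen type II was quantified by Alexa Fluor 488 immunostaining with high-content imaging, relative to DMSO and a 10 μM reference compound.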

Row | SMILES | EC50 (Mus musculus) [µM] | EC50 [µM] | Emax (Mus musculus) [%]
1 | Cc1nccc2c1[nH]c1c(-c3cnn(C)c3)cc(Cl)cc12 [Example 151, 6-Chloro-1-methyl-8-(1-methyl-1H-pyrazol-4-yl)-9H-pyrido[3,4-b]indole] | 0.54 |  | 50 to 80
2 | CCc1nccc2c1[nH]c1c(-c3ccc(OC)cc3)cc(Cl)cc12 [Example 153, 6-Chloro-1-ethyl-8-(4-methoxy-phenyl)-9H-pyrido[3,4-b]indole] | 4.5 |  | 50 to 80
3 | COc1ccc(-c2cc(Cl)cc3c2[nH]c2c(C(F)(F)F)nccc23)cc1 [Example 155, 6-Chloro-8-(4-methoxy-phenyl)-1-trifluoromethyl-9H-pyrido[3,4-b]indole] | > 3.3 |  | < 20
4 | Cc1nccc2c1[nH]c1c(-c3cnc(-n4cccc4)nc3)cc(Cl)cc12 [Example 156, 6-Chloro-1-methyl-8-(2-pyrrol-1-yl-pyrimidin-5-yl)-9H-pyrido[3,4-b]indole] | 1.5 |  | < 20
5 | Cc1nccc2c1[nH]c1c(-c3ccc(Cl)c(C#N)c3Cl)cc(Cl)cc12 [Example 158] | 1.9 |  | > 80
6 | CC(C)n1cc(-c2cc(Cl)cc3c4ccncc4n(CC(F)(F)F)c23)cn1 [Example 160, 6-Chloro-8-(1-isopropyl-1H-pyrazol-4-yl)-9-(2,2,2-trifluoro-ethyl)-9H-pyrido[3,4-b]indole] | > 10 |  | < 20
7 | FC(F)(F)Cn1c2cnccc2c2cc(Cl)cc(-c3cnn(Cc4ccccc4)c3)c21 [Example 162, 8-(1-Benzyl-1H-pyrazol-4-yl)-6-chloro-9-(2,2,2-trifluoro-ethyl)-9H-pyrido[3,4-b]indole] | 0.59 |  | > 80
8 | CC(=O)OCCn1cc(-c2cc(Cl)cc3c4ccncc4n(CC(F)(F)F)c23)cn1 [Example 163, Acetic acid 2-(4-[6-chloro-9-(2,2,2-trifluoro-ethyl)-9H-pyrido[3,4-b]indol-8-yl]-pyrazol-1-yl)-ethyl ester] | 0.69 |  | > 80
9 | CCn1c2c(-c3cnn(C)c3)cc(Cl)cc2c2ccnc(C)c21 [Example 164, 6-Chloro-9-ethyl-1-methyl-8-(1-methyl-1H-pyrazol-4-yl)-9H-pyrido[3,4-b]indole] | 0.23 |  | > 80
10 | FC(F)(F)Cn1c2cnccc2c2cc(Cl)cc(-c3cnn(CC4CC4)c3)c21 [Example 173, 6-Chloro-8-(1-cyclopropylmethyl-1H-pyrazol-4-yl)-9-(2,2,2-trifluoro-ethyl)-9H-pyrido[3,4-b]indole] | 1.9 |  | > 80
11 | FC(F)(F)Cn1c2cnccc2c2cc(Cl)cc(-c3cnc(C4CC4)s3)c21 [Example 174, 6-Chloro-8-(2-cyclopropyl-thiazol-5-yl)-9-(2,2,2-trifluoro-ethyl)-9H-pyrido[3,4-b]indole] | 7.3 |  | 50 to 80
12 | COc1cc(OC)c(-c2cc(Cl)cc3c2[nH]c2c(C)nccc23)c(OC)c1 [Example 175, 6-Chloro-1-methyl-8-(2,4,6-trimethoxy-phenyl)-9H-pyrido[3,4-b]indole] | > 10 |  | < 20
13 | Cc1cc(OC(C)C)ccc1-c1cc(Cl)cc2c1[nH]c1c(C)nccc12 [Example 176, 6-Chloro-8-(4-isopropoxy-2-methyl-phenyl)-1-methyl-9H-pyrido[3,4-b]indole] | > 10 |  | 20 to 50
14 | COc1ccc(-c2cc(Cl)cc3c2[nH]c2c(C)nccc23)cc1O [Example 180, 5-(6-Chloro-1-methyl-9H-pyrido[3,4-b]indol-8-yl)-2-methoxy-phenol] | 0.33 |  | > 80
15 | COc1ccc(-c2cc(Cl)cc3c2[nH]c2c(C)nccc23)cc1OCc1ccccc1 [Example 185, 8-(3-Benzyloxy-4-methoxy-phenyl)-6-chloro-1-methyl-9H-pyrido[3,4-b]indole] | > 10 |  | 20 to 50
16 | Cc1nccc2c1[nH]c1c(-c3ccc(Cl)cc3)cc(Cl)cc12 [Example 189, 6-Chloro-8-(4-chloro-phenyl)-1-methyl-9H-pyrido[3,4-b]indole] | 0.5 |  | > 80

Second part, led by results:

Row | EC50 (Mus musculus) [µM] | EC50 [µM] | SMILES | Emax (Mus musculus) [%]
17 | 0.51 |  | Cc1ccc(-c2cc(Cl)cc3c2[nH]c2c(C)nccc23)cc1 [Example 150, 6-Chloro-1-methyl-8-p-tolyl-9H-pyrido[3,4-b]indole] | > 80
18 | 0.36 |  | COC(=O)c1cc2c([nH]c3c(-c4ccc(OC)cc4)cc(Cl)cc32)c(C)n1 [Example 152, 6-Chloro-8-(4-methoxy-phenyl)-1-methyl-9H-pyrido[3,4-b]indole-3-carboxylic acid methyl ester] | < 20
19 | 8.8 |  | Cc1nccc2c1[nH]c1c(-c3cnc(N)nc3)cc(Cl)cc12 [Example 154, 5-(6-Chloro-1-methyl-9H-pyrido[3,4-b]indol-8-yl)-pyrimidin-2-ylamine] | 20 to 50
20 | > 10 |  | CNc1ncc(-c2cc(Cl)cc3c2[nH]c2c(C)nccc23)cn1 [Example 157, [5-(6-Chloro-1-methyl-9H-pyrido[3,4-b]indol-8-yl)-pyrimidin-2-yl]-methyl-amine] | 20 to 50
21 | 2 |  | CCCn1cc(-c2cc(Cl)cc3c4ccncc4n(CC(F)(F)F)c23)cn1 [Example 161, 6-Chloro-8-(1-propyl-1H-pyrazol-4-yl)-9-(2,2,2-trifluoro-ethyl)-9H-pyrido[3,4-b]indole] | > 80
22 | > 10 |  | Cn1ccc(-c2cc(Cl)cc3c4ccncc4n(CC(F)(F)F)c23)c1 [Example 165, 6-Chloro-8-(1-methyl-1H-pyrrol-3-yl)-9-(2,2,2-trifluoro-ethyl)-9H-pyrido[3,4-b]indole] | < 20
23 | 0.84 |  | FC(F)(F)Cn1c2cnccc2c2cc(Cl)cc(-c3cnn(Cc4cccs4)c3)c21 [Example 166, 6-Chloro-8-(1-thiophen-2-ylmethyl-1H-pyrazol-4-yl)-9-(2,2,2-trifluoro-ethyl)-9H-pyrido[3,4-b]indole] | > 80
24 | 0.99 |  | FC(F)(F)Cn1c2cnccc2c2cc(Cl)cc(-c3cnn(Cc4ccccn4)c3)c21 [Example 168, 6-Chloro-8-(1-pyridin-2-ylmethyl-1H-pyrazol-4-yl)-9-(2,2,2-trifluoro-ethyl)-9H-pyrido[3,4-b]indole] | > 80
25 | 1.3 | 1.1 | COCCn1cc(-c2cc(Cl)cc3c4ccncc4n(CC(F)(F)F)c23)cn1 [Example 169, 6-Chloro-8-[1-(2-methoxy-ethyl)-1H-pyrazol-4-yl]-9-(2,2,2-trifluoro-ethyl)-9H-pyrido[3,4-b]indole] | 
26 | > 10 |  | FC(F)(F)Cn1c2cnccc2c2cc(Cl)cc(-c3cnc(-c4ccccc4)s3)c21 [Example 170, 6-Chloro-8-(2-phenyl-thiazol-5-yl)-9-(2,2,2-trifluoro-ethyl)-9H-pyrido[3,4-b]indole] | 20 to 50
27 | > 10 |  | COc1ccc(-c2cc(Cl)cc3c2[nH]c2c(C)nccc23)cc1OC [Example 172, 6-Chloro-8-(3,4-dimethoxy-phenyl)-1-methyl-9H-pyrido[3,4-b]indole] | 20 to 50
28 | > 10 |  | Cc1nccc2c1[nH]c1c(-c3ccc(OCc4ccccc4)cc3)cc(Cl)cc12 [Example 177, 8-(4-Benzyloxy-phenyl)-6-chloro-1-methyl-9H-pyrido[3,4-b]indole] | 20 to 50
29 | > 10 |  | COc1ccc(-c2cc(Cl)cc3c2[nH]c2c(C)nccc23)c(OC)c1OC [Example 178, 6-Chloro-1-methyl-8-(2,3,4-trimethoxy-phenyl)-9H-pyrido[3,4-b]indole] | 20 to 50
30 | > 10 |  | Cc1nccc2c1[nH]c1c(-c3ccc4c(c3)CCO4)cc(Cl)cc12 [Example 179, 6-Chloro-8-(2,3-dihydro-benzofuran-5-yl)-1-methyl-9H-pyrido[3,4-b]indole] | > 80
31 | 2.1 |  | Cc1nccc2c1[nH]c1c(-c3ccc(OCC4CC4)cc3)cc(Cl)cc12 [Example 181, 6-Chloro-8-(4-cyclopropylmethoxy-phenyl)-1-methyl-9H-pyrido[3,4-b]indole] | > 80
32 | 0.22 |  | Cc1nccc2c1[nH]c1c(-c3ccc(OCC4(C)COC4)cc3)cc(Cl)cc12 [Example 182, 6-Chloro-1-methyl-8-[4-(3-methyl-oxetan-3-ylmethoxy)-phenyl]-9H-pyrido[3,4-b]indole] | > 80
33 | 2.3 |  | Cc1nccc2c1[nH]c1c(-c3ccc(OC4CC4)cc3)cc(Cl)cc12 [Example 183, 6-Chloro-8-(4-cyclopropoxy-phenyl)-1-methyl-9H-pyrido[3,4-b]indole] | 50 to 80
34 | 0.1 |  | COc1ccc(-c2cc(Cl)cc3c2[nH]c2c(C)nccc23)cc1N [Example 186, 5-(6-Chloro-1-methyl-9H-pyrido[3,4-b]indol-8-yl)-2-methoxy-phenylamine] | > 80
35 | 2.2 |  | COc1ccc(-c2cc(Cl)cc3c2[nH]c2c(C)nccc23)c(C)c1C [Example 187, 6-Chloro-8-(4-methoxy-2,3-dimethyl-phenyl)-1-methyl-9H-pyrido[3,4-b]indole] | > 80
36 | 0.64 |  | COc1ccc(-c2cc(Br)cc3c2[nH]c2c(C)nccc23)cc1 [Example 188, 6-Bromo-8-(4-methoxy-phenyl)-1-methyl-9H-pyrido[3,4-b]indole] | > 80
37 | 0.72 |  | Cc1nccc2c1[nH]c1c(-c3ccc(Cl)cc3Cl)cc(Cl)cc12 [Example 190, 6-Chloro-8-(2,4-dichloro-phenyl)-1-methyl-9H-pyrido[3,4-b]indole] | > 80
38 | 0.55 |  | COc1ccc(-c2cc(Cl)cc3c2[nH]c2cnccc23)cc1 [Example 191, 6-Chloro-8-(4-methoxy-phenyl)-9H-pyrido[3,4-b]indole] | > 80
